In ChEMBL document CHEMBL1141589, “Synthesis and biological evaluation of NO-donor-tacrine hybrids as hepatoprotective anti-Alzheimer drug candidates” (J Med Chem, 2008):

Tests used:
[1] = target: Acetylcholinesterase (Homo sapiens, UniProt P22303); assay: Inhibition of AChE by Ellman's assay
[2] = target: Cholinesterase (Homo sapiens, UniProt P06276)
Description: Inhibition of BuChE by Ellman's assay

[3] = system: Artery; assay: tissue or blood; details: Sus scrofa
Description: Vasorelaxation activity in PGF2-alpha-precontracted pig pulmonary artery

Sequence of Cholinesterase (P06276 whole entry): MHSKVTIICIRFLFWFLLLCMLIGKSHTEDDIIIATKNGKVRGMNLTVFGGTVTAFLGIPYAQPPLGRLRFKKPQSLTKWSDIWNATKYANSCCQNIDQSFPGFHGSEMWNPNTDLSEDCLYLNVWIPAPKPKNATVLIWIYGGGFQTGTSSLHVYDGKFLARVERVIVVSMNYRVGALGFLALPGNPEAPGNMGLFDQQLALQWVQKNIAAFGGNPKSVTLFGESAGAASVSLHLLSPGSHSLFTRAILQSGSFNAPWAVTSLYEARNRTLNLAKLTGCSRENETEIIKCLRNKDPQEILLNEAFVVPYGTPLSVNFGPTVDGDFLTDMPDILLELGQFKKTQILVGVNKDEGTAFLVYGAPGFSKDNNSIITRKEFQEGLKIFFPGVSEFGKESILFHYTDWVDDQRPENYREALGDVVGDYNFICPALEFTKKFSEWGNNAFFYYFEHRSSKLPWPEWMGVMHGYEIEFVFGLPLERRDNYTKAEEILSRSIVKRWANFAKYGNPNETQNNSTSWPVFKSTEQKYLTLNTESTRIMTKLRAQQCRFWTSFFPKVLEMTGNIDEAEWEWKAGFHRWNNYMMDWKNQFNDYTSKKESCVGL
Sequence of Acetylcholinesterase (P22303 whole entry): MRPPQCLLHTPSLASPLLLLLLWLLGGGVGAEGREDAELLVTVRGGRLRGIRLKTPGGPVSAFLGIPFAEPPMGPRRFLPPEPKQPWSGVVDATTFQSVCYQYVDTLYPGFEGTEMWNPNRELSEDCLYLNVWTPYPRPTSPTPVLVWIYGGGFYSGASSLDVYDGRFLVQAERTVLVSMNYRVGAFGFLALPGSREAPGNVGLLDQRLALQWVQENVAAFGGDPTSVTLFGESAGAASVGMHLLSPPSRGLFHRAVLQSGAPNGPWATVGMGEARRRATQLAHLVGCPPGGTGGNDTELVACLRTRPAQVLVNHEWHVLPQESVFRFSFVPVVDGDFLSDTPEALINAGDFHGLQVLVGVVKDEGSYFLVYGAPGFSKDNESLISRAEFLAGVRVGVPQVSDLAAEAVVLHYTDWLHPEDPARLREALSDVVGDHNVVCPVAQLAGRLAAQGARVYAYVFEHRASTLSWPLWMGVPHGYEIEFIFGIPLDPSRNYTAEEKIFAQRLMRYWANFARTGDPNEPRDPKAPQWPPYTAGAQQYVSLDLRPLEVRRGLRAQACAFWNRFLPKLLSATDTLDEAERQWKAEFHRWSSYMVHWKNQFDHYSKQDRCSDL

Structure (SMILES)	IC50 [1]	IC50 [2]	EC50 [3]
O=[N+]([O-])OCCCCCCNCCCCNc1c2c(nc3ccccc13)CCCC2	0.0181 µM	0.0108 µM	
O=C(CO/N=[N+](\[O-])N1CCCC1)NCCCCNc1c2c(nc3ccccc13)CCCC2	0.0507 µM	0.041 µM	
O=[N+]([O-])OCCCCCCNCCCNc1c2c(nc3ccccc13)CCCC2	0.0063 µM	0.0217 µM	
O=C(CCO[N+](=O)[O-])NCCCNc1c2c(nc3ccccc13)CCCC2	0.093 µM	0.028 µM	
O=C(CO[N+](=O)[O-])NCCCNc1c2c(nc3ccccc13)CCCC2	0.0282 µM	0.0135 µM	3.68 µM
CC(C)(CO[N+](=O)[O-])C(=O)NCCCNc1c2c(nc3ccccc13)CCCC2	0.0695 µM	0.0055 µM	
O=[N+]([O-])OCCCNCCCNc1c2c(nc3ccccc13)CCCC2	0.0064 µM	0.0055 µM	
CC(C)(C)C(=O)NCCCCNc1c2c(nc3ccccc13)CCCC2	0.0216 µM	0.0365 µM	
CC(C)(CO[N+](=O)[O-])C(=O)NCCCCNc1c2c(nc3ccccc13)CCCC2	0.226 µM	0.0073 µM	10.5 µM
O=[N+]([O-])OCCNCCCNc1c2c(nc3ccccc13)CCCC2	0.01 µM	0.0052 µM	
O=C(CCO[N+](=O)[O-])NCCCCNc1c2c(nc3ccccc13)CCCC2	0.0457 µM	0.0151 µM	
O=C(CO/N=[N+](\[O-])N1CCCC1)NCCCNc1c2c(nc3ccccc13)CCCC2	0.0355 µM	0.0153 µM	22.5 µM
O=C(CO[N+](=O)[O-])NCCCCNc1c2c(nc3ccccc13)CCCC2	0.0226 µM	0.0121 µM	
O=[N+]([O-])OCCNCCCCNc1c2c(nc3ccccc13)CCCC2	0.0111 µM	0.0138 µM	
O=[N+]([O-])OCCCNCCCCNc1c2c(nc3ccccc13)CCCC2	0.0056 µM	0.0099 µM	8.8 µM
O=[N+]([O-])O[C@H]1CO[C@H]2[C@@H]1OC[C@H]2O[N+](=O)[O-] [ISOSORBIDE DINITRATE]			0.42 µM
